“Also recorded” adds a separate entry of the source. Where two headings read alike, the source gives them in different places.
T1: MpUGT88A1 (Malus domestica, UniProt B3TKC8)
T1 construct: The entire coding region of the MpUGT88A1 cDNA was cloned in frame into the expression vector pET30a(+); made in house; host or cells: E. coli BL21-Codon-Plus-RIL
T1 sequence (B3TKC8 1-483): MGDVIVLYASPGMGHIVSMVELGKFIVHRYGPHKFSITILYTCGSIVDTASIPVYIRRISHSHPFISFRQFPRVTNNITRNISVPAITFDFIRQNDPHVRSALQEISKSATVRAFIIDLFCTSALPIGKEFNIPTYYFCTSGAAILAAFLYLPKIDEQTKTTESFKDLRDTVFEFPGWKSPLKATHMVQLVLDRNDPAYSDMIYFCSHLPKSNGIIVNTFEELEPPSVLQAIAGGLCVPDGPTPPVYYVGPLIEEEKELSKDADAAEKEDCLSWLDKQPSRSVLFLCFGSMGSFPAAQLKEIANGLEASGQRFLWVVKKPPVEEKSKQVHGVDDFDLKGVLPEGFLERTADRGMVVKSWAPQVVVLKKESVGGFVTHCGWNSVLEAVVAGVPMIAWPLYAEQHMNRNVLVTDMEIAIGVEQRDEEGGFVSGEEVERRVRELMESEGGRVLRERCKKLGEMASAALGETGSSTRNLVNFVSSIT

B1: Md—138221: variant phloretin glycosyltransferase polypeptide from Malus x domestica (protein, listed as Malus domestica)
chain: MGDVIVLYAAPGMGHVISMVELGKLILHRYGPHKFSITILYTCGSFFDTPSIPAYIRRISHSHPSISFRQFPRVTNKITQNISGTAIVVDFVRQNDPHVRRALQDISKSAVVRAFIIDLVCTSAMTISKEFDIPTYYFYTSGAAALGAFLYFPKIHEQTTQSFKDLTDTVIEFPGRKSPLKAIHMIEPLLDRDDPAYWDFLSFCSDLPKSKGIIVNTFEELEPPAVLHAIAEGLCVPDGPTSPVYYVGPLIDEEKVSGNDAAAAEEDCLSWLDKQPSRSVVFLCFGSRGSLPAIQLKEIAKALEASGQRFLWVVKKPPVDEKTKQVLGVDDFDLEGVLPEGFLERTKDRGMVVKSWAPQAEVLKKESVGGFVTHCGWNSVLEAVVAGVPMIAWPLYAEQHLNRNVMATDMEIAIAVEQRDEEDGFVSGEELERRVRELMESEEGRVLRERSKKIGEMAMAALGENGSSTRNLVNFVNSLT
B2: MpUGT88A1: Malus domestica uridine diphosphate glycosyltransferase; recombinant His6-tagged phloretin glycosyltransferase produced in E. coli (protein, listed as Malus domestica)
chain: T1 sequence (B3TKC8 1-483)
modifications: His6 tag
notes: Malus domestica uridine diphosphate glycosyltransferase; recombinant His6-tagged phloretin glycosyltransferase produced in E. coli

Experiments:
Format in all cases: biochemical
MpUGT88A1 [1] = target: T1, MpUGT88A1; assay: UGT activity assay with [3H]-UDP-glucose, recombinant MpUGT88A1; details: [3H]-UDP-glucose as sugar donor; 2 mM substrate; 30° C., 30 min
Method: UGT activity assays were performed in triplicate in 50 μl reactions using ˜1-2 μg of recombinant protein purified on His-Trap and G200 Superdex columns. […] Reactions were performed at 30° C. for 30 min and terminated by addition of 10 μL of 2 M HCl. The reaction mixtures were extracted twice with 100 μL of ethyl acetate and 20 μl of the organic phase were combined with 1 ml of non-aqueous scintillation fluid and analysed by liquid scintillation counting (Tri-Carb 2900TR, PerkinElmer, Boston, Mass., USA). Boiled enzyme and pET30a(+) vector controls were run in parallel with all enzyme reactions. […]
Fifteen substrates (caffeic acid, catechin, chlorogenic acid, 2-coumaric acid, 3-coumaric acid, 4-coumaric acid, cyanidin, 3-(3,4 dihydroxyphenyl) propionic acid, epicatechin, 3-hydroxybenzoic acid, naringenin, phloretin, protocatechuic acid, quercetin and rutin) that are natural constituents of apple fruit or commonly available phenolic compounds were screened for activity.

MpUGT88A1 [2] = target: T1, MpUGT88A1; details: 2 μM phloretin; for inhibition of enzyme activity by divalent cations: 25 mM
Method: (§1) UGT activity assays were performed in triplicate in 50 μl reactions using ˜1-2 μg of recombinant protein purified on His-Trap and G200 Superdex columns. […] Reactions were performed at 30° C. for 30 min and terminated by addition of 10 μL of 2 M HCl. The reaction mixtures were extracted twice with 100 μL of ethyl acetate and 20 μl of the organic phase were combined with 1 ml of non-aqueous scintillation fluid and analysed by liquid scintillation counting (Tri-Carb 2900TR, PerkinElmer, Boston, Mass., USA). Boiled enzyme and pET30a(+) vector controls were run in parallel with all enzyme reactions.
(§2) The effect on UGT activity of different pH (5-10), temperature (15-50° C.) and ionic strength of monovalent (Na^+, 0-100 mM; K^+, 0-10 mM) and divalent ions ([…] or Mn^2+, 0-25 mM) was determined as described above using 2 μM phloretin.

MpUGT88A1 [3] = target: T1, MpUGT88A1; details: 10 μM phloretin, 250 μM UDP-sugar, 16 h
[4] = Phloretin glycosyl transferase activity assay of recombinant Md—138221; details: recombinant protein from E. coli
Method: as §1

[5] = Effect of pH and temperature on UGT activity of MpUGT88A1 towards phloretin; details: 2 μM phloretin
Method: as §1, §2

Molecule | utilised by MpUGT88A1 as an acceptor (substrate screen) (MpUGT88A1 [1]) | other results
O=C(O)/C=C/c1ccccc1O [2-coumaric acid] | only phloretin was utilised | –
catechin | only phloretin was utilised | –
O=C(O)c1cccc(O)c1 [3-hydroxybenzoic acid] | only phloretin was utilised | –
[Mg+2] [Mg^2+] | – | inhibition of enzyme activity by divalent cations (MpUGT88A1 [2]): not inhibited
O=C1C[C@@H](c2ccc(O)cc2)Oc2cc(O)cc(O)c21 [naringenin] | only phloretin was utilised; also recorded: not utilised as substrates | –
[Na+] [Na^+] | – | inhibition of enzyme activity by monovalent cation (MpUGT88A1 [2]; 100 mM): not inhibited
O=C(O)/C=C/c1ccc(O)cc1 [4-coumaric acid] | only phloretin was utilised | –
O=C(O)CCc1ccc(O)c(O)c1 [3-(3,4 dihydroxyphenyl) propionic acid] | only phloretin was utilised | –
[Mn+2] [Mn^2+] | – | inhibition of enzyme activity by divalent cations (MpUGT88A1 [2]): not inhibited
O=C(O)/C=C/c1ccc(O)c(O)c1 [caffeic acid] | only phloretin was utilised | –
O=c1ccn([C@@H]2O[C@H](COP(=O)(O)OP(=O)(O)O[C@H]3OC[C@@H](O)[C@H](O)[C@H]3O)[C@@H](O)[C@H]2O)c(=O)[nH]1 [UDP-xylose] | – | glycosylated product formation with phloretin and activated sugar donor (HPLC/LC-MS) (MpUGT88A1 [3]): a single glycosylated product was formed
O=C(O)c1ccc(O)c(O)c1 [protocatechuic acid] | only phloretin was utilised | –
O=c1c(O)c(-c2ccc(O)c(O)c2)oc2cc(O)cc(O)c12 [quercetin] | only phloretin was utilised; also recorded: not utilised as substrates | –
O=C(/C=C/c1ccc(O)c(O)c1)O[C@@H]1C[C@](O)(C(=O)O)C[C@@H](O)[C@H]1O [chlorogenic acid] | only phloretin was utilised | –
O=C(CCc1ccc(O)cc1)c1c(O)cc(O)cc1O [phloretin] | only phloretin was utilised | –
[K+] [K^+] | – | inhibition of enzyme activity by monovalent cation (MpUGT88A1 [2]; 10 mM): not inhibited
O=C(O)/C=C/c1cccc(O)c1 [3-coumaric acid] | only phloretin was utilised | –
B1 | – | phloretin glycosyltransferase activity relative to that shown for MpUGT88A1 [4]: approximately 3%
B2 | – | pH range of significant activity ([5]; pH range 5-10): 7-8; pH of maximum activity ([5]; pH range 5-10, 50 mM Tris-HCl): 7.7; activity at pH 5 and 10 ([5]; relative to maximum): less than 5%; activity at pH 6 and 9 ([5]; relative to maximum): 20%; temperature of maximum activity ([5]; standard conditions): 25 °C; temperature range of activity ([5]; standard conditions): 15-50 °C

Reference: patent US8859848B2, “Phloretin glycosyltransferases, polynucleotides encoding these and methods of use” (The New Zealand Institute for Plant and Food Research …, priority 2007, dated 2014)
